From patent US6525022B1, “Receptor specific atrial natriuretic peptides” (Genentech, Inc., priority 1993, dated 2003)
Read-outs that look alike come from different tables or passages of the source. Where a SMILES comes first, the peptide text is derived from it. Bridges are numbered along the chain shown (N, C = ends). Where no end group is shown, it is not given here. [ ]: non-standard residue; d: D form. Cha = N[C@@H](CC1CCCCC1)C(=O)O; hCys = N[C@@H](CCS)C(=O)O

Columns and labels:
[1] = molecular target: human NEP (hNEP), endopeptidase 24.11 (Homo sapiens, UniProt P08473); test: Degradation of ANF variants by human NEP, half-life by HPLC
[2] = molecular target: T1, human natriuretic peptide clearance receptor-C (human, UniProt P17342 27-541); test: competition binding, Table I; tracer and receptor format not given
T1 construct: whole, on cells; also called hNPR-C; human NPR-C
T1 sequence (looked up): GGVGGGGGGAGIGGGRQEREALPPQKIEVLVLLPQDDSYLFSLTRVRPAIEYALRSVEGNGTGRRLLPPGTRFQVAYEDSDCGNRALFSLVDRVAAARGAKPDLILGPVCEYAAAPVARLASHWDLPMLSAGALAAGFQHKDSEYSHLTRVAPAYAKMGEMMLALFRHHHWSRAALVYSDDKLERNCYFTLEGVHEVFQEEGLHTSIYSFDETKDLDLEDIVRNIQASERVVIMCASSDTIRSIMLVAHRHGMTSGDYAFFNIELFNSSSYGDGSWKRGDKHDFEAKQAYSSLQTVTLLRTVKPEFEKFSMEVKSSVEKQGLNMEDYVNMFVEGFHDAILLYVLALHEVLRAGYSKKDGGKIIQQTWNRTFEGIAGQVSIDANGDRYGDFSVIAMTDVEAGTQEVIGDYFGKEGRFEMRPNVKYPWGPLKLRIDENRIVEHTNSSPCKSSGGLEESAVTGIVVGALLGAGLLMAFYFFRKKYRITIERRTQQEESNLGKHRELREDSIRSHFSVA

[3] = molecular target: T2, human natriuretic peptide receptor-A (human, UniProt P16066 33-1061); test: as above
T2 construct: whole, on cells; also called hNPR-A; human NPR-A
T2 sequence (looked up): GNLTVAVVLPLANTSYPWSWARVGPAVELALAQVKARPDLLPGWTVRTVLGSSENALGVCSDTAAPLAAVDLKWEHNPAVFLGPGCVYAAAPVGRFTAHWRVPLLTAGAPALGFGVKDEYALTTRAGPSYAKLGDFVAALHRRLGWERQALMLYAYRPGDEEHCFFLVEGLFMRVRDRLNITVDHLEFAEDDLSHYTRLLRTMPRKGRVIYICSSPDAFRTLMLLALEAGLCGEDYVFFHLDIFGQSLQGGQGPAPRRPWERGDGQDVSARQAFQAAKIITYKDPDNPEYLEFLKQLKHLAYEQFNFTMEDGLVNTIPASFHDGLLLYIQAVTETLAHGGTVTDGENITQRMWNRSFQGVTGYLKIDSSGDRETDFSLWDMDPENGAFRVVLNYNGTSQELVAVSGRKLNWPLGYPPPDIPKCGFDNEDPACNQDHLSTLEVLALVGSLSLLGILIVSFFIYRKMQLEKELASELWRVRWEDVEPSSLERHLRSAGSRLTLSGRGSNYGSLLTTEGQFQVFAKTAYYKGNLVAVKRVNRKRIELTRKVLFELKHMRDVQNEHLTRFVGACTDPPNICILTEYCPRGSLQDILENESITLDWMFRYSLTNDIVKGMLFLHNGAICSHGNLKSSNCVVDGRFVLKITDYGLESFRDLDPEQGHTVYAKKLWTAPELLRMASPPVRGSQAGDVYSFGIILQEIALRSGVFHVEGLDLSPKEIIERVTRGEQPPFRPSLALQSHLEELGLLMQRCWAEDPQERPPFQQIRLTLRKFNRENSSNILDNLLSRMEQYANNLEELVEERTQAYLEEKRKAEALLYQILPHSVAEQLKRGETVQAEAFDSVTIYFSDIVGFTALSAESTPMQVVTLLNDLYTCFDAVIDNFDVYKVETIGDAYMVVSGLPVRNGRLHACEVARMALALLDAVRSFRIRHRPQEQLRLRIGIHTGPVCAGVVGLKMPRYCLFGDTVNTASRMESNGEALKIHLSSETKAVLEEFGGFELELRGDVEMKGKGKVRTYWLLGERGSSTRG

[4] = isolated human NEP (endopeptidase 24.11) in HEPES buffer, Half-Life (min.), FIG. 7: ANF variants 32 nM/ml, NEP 0.45 μg/ml
[5] = isolated human NEP (endopeptidase 24.11) in HEPES buffer, Half-Life (min.), FIG. 6: ANF variants 0.5 mg/ml, NEP 0.225 mg/ml

human NEP (hNEP), endopeptidase 24.11, sequence (P08473 whole entry): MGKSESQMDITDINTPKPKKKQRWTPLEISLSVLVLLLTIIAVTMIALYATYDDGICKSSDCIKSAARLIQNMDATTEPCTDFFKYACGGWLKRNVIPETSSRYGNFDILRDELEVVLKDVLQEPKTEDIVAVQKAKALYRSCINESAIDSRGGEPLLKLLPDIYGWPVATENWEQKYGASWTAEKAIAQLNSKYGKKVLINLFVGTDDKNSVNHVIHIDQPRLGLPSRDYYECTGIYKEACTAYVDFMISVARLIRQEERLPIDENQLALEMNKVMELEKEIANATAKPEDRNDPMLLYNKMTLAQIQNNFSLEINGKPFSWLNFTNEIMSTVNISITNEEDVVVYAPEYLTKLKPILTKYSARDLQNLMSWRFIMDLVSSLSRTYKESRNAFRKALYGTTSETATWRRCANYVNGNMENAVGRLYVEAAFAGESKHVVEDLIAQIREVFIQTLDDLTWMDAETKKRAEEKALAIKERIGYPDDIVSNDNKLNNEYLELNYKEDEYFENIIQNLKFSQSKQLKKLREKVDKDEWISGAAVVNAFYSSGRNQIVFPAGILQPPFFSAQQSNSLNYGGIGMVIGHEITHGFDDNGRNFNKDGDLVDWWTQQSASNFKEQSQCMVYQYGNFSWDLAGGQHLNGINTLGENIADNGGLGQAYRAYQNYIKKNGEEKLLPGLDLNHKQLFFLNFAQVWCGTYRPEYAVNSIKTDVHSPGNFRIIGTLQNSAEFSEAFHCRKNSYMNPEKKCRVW

Question: How did the half-life at 32 nM/ml [1, 4] turn out when CC[C@H](C)[C@@H]1NC(=O)[C@H](CO)NC(=O)[C@H](CC(=O)O)NC(=O)[C@H]([C@@H](C)CC)NC(=O)[C@H](CCCNC(=N)N)NC(=O)CNC(=O)CNC(=O)[C@H](Cc2ccccc2)NC(=O)[C@@H](NC(=O)[C@H](CO)NC(=O)[C@H](CO)NC(=O)[C@H](CCCNC(=N)N)NC(=O)[C@H](CCCNC(=N)N)NC(=O)[C@H](CC(C)C)NC(=O)[C@@H](N)CO)CSSC[C@@H](C(=O)N[C@@H](CC(N)=O)C(=O)N[C@@H](CO)C(=O)N[C@@H](Cc2ccccc2)C(=O)N[C@@H](CCCNC(=N)N)C(=O)N[C@@H](Cc2ccc(O)cc2)C(=O)O)NC(=O)CNC(=O)[C@H](CC(C)C)NC(=O)CNC(=O)[C@H](CO)NC(=O)[C@H](CCC(N)=O)NC(=O)[C@H](C)NC(=O)[C@H](CCCNC(=N)N)NC1=O [ANF 25] (H-SLRRSSCFGGRIDSIRAQSGLGCNSFRY-OH; disulfide 7-23 (inferred); N-terminus and C-terminus assumed) was run?
Answer: 199 min

Question: Which half-life at 32 nM/ml [1, 4] does the source give for CC[C@H](C)[C@@H]1NC(=O)[C@H](CCCNC(=N)N)NC(=O)[C@H](CC(=O)O)NC(=O)[C@H]([C@@H](C)CC)NC(=O)[C@H](CO)NC(=O)CNC(=O)[C@H]([C@@H](C)O)NC(=O)[C@H](CC2CCCCC2)NC(=O)[C@@H](NC(=O)[C@H](CO)NC(=O)[C@H](CO)NC(=O)[C@H](CCCNC(=N)N)NC(=O)[C@H](CCCNC(=N)N)NC(=O)[C@H](CC(C)C)NC(=O)[C@@H](N)CO)CSSC[C@@H](C(=O)N[C@@H](CC(N)=O)C(=O)N[C@@H](CO)C(=O)N[C@@H](Cc2ccccc2)C(=O)N[C@@H](CCCNC(=N)N)C(=O)N[C@@H](Cc2ccc(O)cc2)C(=O)O)NC(=O)CNC(=O)[C@H](CC(C)C)NC(=O)CNC(=O)[C@H](CO)NC(=O)[C@H](CCC(N)=O)NC(=O)[C@H](C)NC(=O)[C@H](CCCNC(=N)N)NC1=O [ANF 79] (H-SLRRSSC[Cha]TGSIDRIRAQSGLGCNSFRY-OH; disulfide 7-23; C-terminus assumed) here?
Answer: 477 min

Question: For CC[C@H](C)[C@@H]1NC(=O)[C@H](CCCNC(=N)N)NC(=O)[C@H](CC(=O)O)NC(=O)[C@H]([C@@H](C)CC)NC(=O)[C@H](CCCNC(=N)N)NC(=O)CNC(=O)CNC(=O)[C@H](Cc2ccccc2)NC(=O)[C@@H](NC(=O)[C@H](CO)NC(=O)[C@H](CO)NC(=O)[C@H](CCCNC(=N)N)NC(=O)[C@H](CCCNC(=N)N)NC(=O)[C@H](CC(C)C)NC(=O)[C@@H](N)CO)CSSC[C@@H](C(=O)N[C@@H](CC(N)=O)C(=O)N[C@@H](CO)C(=O)N[C@@H](Cc2ccccc2)C(=O)N[C@@H](CCCNC(=N)N)C(=O)N[C@@H](Cc2ccc(O)cc2)C(=O)O)NC(=O)CNC(=O)[C@H](CC(C)C)NC(=O)CNC(=O)[C@H](CO)NC(=O)[C@H](CCC(N)=O)NC(=O)[C@H](C)NC(=O)[C@H](CCCNC(=N)N)NC1=O [ANF 24], which half-life at 0.5 mg/ml [1, 5] is on record?
Answer: 600 min

Question: CC[C@H](C)[C@@H]1NC(=O)[C@H](CCCNC(=N)N)NC(=O)[C@H](CC(=O)O)NC(=O)[C@H]([C@@H](C)CC)NC(=O)[C@H](CCCNC(=N)N)NC(=O)CNC(=O)CNC(=O)[C@H](Cc2ccccc2)NC(=O)[C@@H](NC(=O)[C@H](CO)NC(=O)[C@H](CO)NC(=O)[C@H](CCCNC(=N)N)NC(=O)[C@H](CCCNC(=N)N)NC(=O)[C@H](CC(C)C)NC(=O)[C@H](CO)NC(=O)[C@H](CCCNC(=N)N)NC(=O)[C@@H]2CCCN2C(=O)[C@H](C)NC(=O)[C@@H](N)[C@@H](C)O)CSSC[C@@H](C(=O)N[C@@H](CC(N)=O)C(=O)N[C@@H](CO)C(=O)N[C@@H](Cc2ccccc2)C(=O)N[C@@H](CCCNC(=N)N)C(=O)N[C@@H](Cc2ccc(O)cc2)C(=O)O)NC(=O)CNC(=O)[C@H](CC(C)C)NC(=O)CNC(=O)[C@H](CO)NC(=O)[C@H](CCC(N)=O)NC(=O)[C@H](C)NC(=O)[C@H](CCCNC(=N)N)NC1=O [ANF 23] (H-TAPRSLRRSSCFGGRIDRIRAQSGLGCNSFRY-OH; disulfide 11-27) was tested. Which half-life at 0.5 mg/ml [1] did it give?
Answer: 737 min

Question: With CC[C@H](C)[C@@H]1NC(=O)[C@H](CCCNC(=N)N)NC(=O)[C@H](CC(=O)O)NC(=O)[C@H]([C@@H](C)CC)NC(=O)[C@H](CO)NC(=O)CNC(=O)[C@H]([C@@H](C)O)NC(=O)[C@H](Cc2ccccc2)NC(=O)[C@@H](NC(=O)[C@H](CO)NC(=O)[C@H](CO)NC(=O)[C@H](CCCNC(=N)N)NC(=O)[C@H](CCCNC(=N)N)NC(=O)[C@H](CC(C)C)NC(=O)[C@@H](N)CO)CSSC[C@@H](C(=O)N[C@@H](CC(N)=O)C(=O)N[C@@H](CO)C(=O)N[C@@H](Cc2ccccc2)C(=O)N[C@@H](CCCNC(=N)N)C(=O)N[C@@H](Cc2ccc(O)cc2)C(=O)O)NC(=O)CNC(=O)[C@H](CC(C)C)NC(=O)CNC(=O)[C@H](CO)NC(=O)[C@@H]2CCCN2C(=O)[C@H](C)NC(=O)[C@H](CCCNC(=N)N)NC1=O [ANF 31] (H-SLRRSSCFTGSIDRIRAPSGLGCNSFRY-OH; disulfide 7-23; C-terminus assumed) as the molecule, how does the half-life at 32 nM/ml [1, 4] read?
Answer: 178 min

Question: Which half-life at 32 nM/ml ([1]; isolated human NEP (endopeptidase 24.11) in HEPES buffer, Half-life, FIG. 8: 32 nM/ml peptide, 0.075 μg/ml NEP) does the source give for CC[C@H](C)[C@@H]1NC(=O)[C@H](CCCNC(=N)N)NC(=O)[C@H](CC(=O)O)NC(=O)[C@H](CCSC)NC(=O)[C@@H]2CCCN2C(=O)[C@H](CCCNC(=N)N)NC(=O)[C@H](CCC(=O)O)NC(=O)[C@H](Cc2ccccc2)NC(=O)[C@@H](NC(=O)[C@H](CO)NC(=O)[C@H](CO)NC(=O)[C@H](CCCNC(=N)N)NC(=O)[C@H](CCCNC(=N)N)NC(=O)[C@H](CC(C)C)NC(=O)[C@@H](N)CO)CSSC[C@@H](C(=O)N[C@@H](CC(N)=O)C(=O)N[C@@H](CO)C(=O)N[C@@H](Cc2ccccc2)C(=O)N[C@@H](CCCNC(=N)N)C(=O)N[C@@H](Cc2ccc(O)cc2)C(=O)O)NC(=O)CNC(=O)[C@H](CC(C)C)NC(=O)CNC(=O)[C@H](CO)NC(=O)[C@H](CCC(N)=O)NC(=O)[C@H](C)NC(=O)CNC1=O [ANF 51] (H-SLRRSSCFERPMDRIGAQSGLGCNSFRY-OH; disulfide 7-23; C-terminus assumed) here?
Answer: 1930 min

Question: And the half-life at 32 nM/ml ([1]; isolated human NEP (endopeptidase 24.11) in HEPES buffer, Half-life, FIG. 8: 32 nM/ml peptide, 0.15 μg/ml NEP)?
Answer: 269 min

Question: How did the half-life at 0.5 mg/ml [1, 5] turn out when CC[C@H](C)[C@@H]1NC(=O)[C@H](CCCNC(=N)N)NC(=O)[C@H](CC(=O)O)NC(=O)[C@H](CCSC)NC(=O)[C@H](CO)NC(=O)CNC(=O)[C@H]([C@@H](C)O)NC(=O)[C@H](Cc2ccccc2)NC(=O)[C@@H](NC(=O)[C@H](CO)NC(=O)[C@H](CO)NC(=O)[C@H](CCCNC(=N)N)NC(=O)[C@H](CCCNC(=N)N)NC(=O)[C@H](CC(C)C)NC(=O)[C@@H](N)CO)CSSC[C@@H](C(=O)N[C@@H](CC(N)=O)C(=O)N[C@@H](CO)C(=O)N[C@@H](Cc2ccccc2)C(=O)N[C@@H](CCCNC(=N)N)C(=O)N[C@@H](Cc2ccc(O)cc2)C(=O)O)NC(=O)CNC(=O)[C@H](CC(C)C)NC(=O)CNC(=O)[C@H](CO)NC(=O)[C@H](CCC(N)=O)NC(=O)[C@H](C)NC(=O)CNC1=O [ANF 50] (H-SLRRSSCFTGSMDRIGAQSGLGCNSFRY-OH; disulfide 7-23; C-terminus assumed) was run?
Answer: 93 min

Question: How did the IC50 [2] turn out when SLRRSSC[dS]FTGSIDRIRAQSGLGCNSFRY (disulfide 7-24) [ANF 74] was run?
Answer: 10 µM

Question: What about the IC50 [3] of the same molecule?
Answer: 29.4 nM

Question: How did the IC50 [3] turn out when SLDRSSCFTGSLDSIRA[hCys]SGLGCNSFR[hCys] (disulfide 18-28, 7-23) [ANF 70] was run?
Answer: 3.3 nM

Question: What does the source list for SLRRSSC[dA]FTGSIDRIRAQSGLGCNSFRY (disulfide 7-24) [ANF 75]?
Answer: IC50 [2]: 2 µM; IC50 [3]: 2.08 nM
